Experimental data reported in patent US20150218172A1, “Pyrrolo[2,3-D]Pyrimidine Tropomyosin-Related Kinase Inhibitors” (PFIZER LIMITED, priority 2012, published 2015).

Target: T1, TrkA (Homo sapiens, UniProt P04629)
T1 construct: aa 441-796; His; purchased Invitrogen PV3144
Assay: Isolated TRK enzyme assay (HTRF KinEASE-TK kit), PV3144 TrkA enzyme assay
Type: biochemical
Settings: PV3144 TrkA enzyme assay, recombinant His-tagged cytoplasmic domain aa 441-796, 4 nM enzyme, 40 uM ATP; arithmetic mean where more than one reading; read-out: Trka enzyme (IC50)
Procedure: Isolated TRK Enzyme assays use the HTRF KinEASE-TK kit (Cisbio Cat#62TK0PEJ) with recombinant His-tagged cytoplasmic domains of each TRK receptor sourced from Invitrogen (see table below). This activity-assay measures the phosphorylation of tyrosine residues within a substrate from the HTRF kit which has been validated by Cisbio for a variety of tyrosine kinases including the TRK receptors.
0.5 mM stock solutions of test compounds are prepared and serially diluted in 100% DMSO. A standard curve using the compound of Example 135 disclosed in WO2005/116035 of 150 uM is also prepared on each test plate. High percentage effect (HPE) is defined by 150 uM (using the compound of Example 135 as disclosed in WO2005/116035) and 0% effect (ZPE) is defined by 100% DMSO. Greiner low volume black plates containing 0.2 ul of serially diluted compound, standard and HPE/ZPE are created using the Bravo nanolitre dispenser.
1X enzyme buffer is prepared from 5X Enzymatic Buffer from the Cisbio KinEASE TK kit using MilliQ water. The buffer is then supplemented with 10 mM MgCl and 2 mM DTT (both from Sigma). In the case of TRKB, the buffer is also supplemented with 125 nM Supplement Enzymatic Buffer (SEB) from the Cisbio kit.
2X FAC of enzyme and 2X FAC ATP diluted in 1X complete enzyme buffer is incubated at room temperature for 20 minutes to preactivate the enzyme. Following this preactivation step, 5 ul/well of enzyme+ATP mix is added using a Multidrop Micro to the assay plate, spotted with 0.2 ul 100% DMSO compound. This is left for 20 mins at room temperature before adding 5 ul of 2 uM TK-substrate-Biotin (from the Cisbio kit) diluted in 1X enzyme buffer (1 uM FAC) using the Multidrop Micro. The reaction is incubated at room temperature for the optimized assay reaction time (see table). The reaction is stopped by adding 10 ul/well HTRF Detection Buffer containing 0.25 uM Streptavidin-XL665 (0.125 uM FAC) and 1:200 TK Antibody-Cryptate using a Multidrop.
After the Detection Reagent addition, plates are covered and incubated at room temperature for 60 minutes. HTRF signal is read using an Envision reader, measured as a ratio of emissions at two different wavelengths, 620 nm and 665 nm. […] Test compound data are expressed as percentage inhibition defined by HPE and ZPE values for each plate. Percentage inhibition in the presence of test compound is plotted against compound concentration on a log scale to determine an IC50 from the resultant sigmoid curve.
Below are TrkA IC50 data generated using the PV3144 TrkA enzyme assay. Where more than one reading was taken, the arithmetic mean is presented.

T1 sequence (P04629 441-796): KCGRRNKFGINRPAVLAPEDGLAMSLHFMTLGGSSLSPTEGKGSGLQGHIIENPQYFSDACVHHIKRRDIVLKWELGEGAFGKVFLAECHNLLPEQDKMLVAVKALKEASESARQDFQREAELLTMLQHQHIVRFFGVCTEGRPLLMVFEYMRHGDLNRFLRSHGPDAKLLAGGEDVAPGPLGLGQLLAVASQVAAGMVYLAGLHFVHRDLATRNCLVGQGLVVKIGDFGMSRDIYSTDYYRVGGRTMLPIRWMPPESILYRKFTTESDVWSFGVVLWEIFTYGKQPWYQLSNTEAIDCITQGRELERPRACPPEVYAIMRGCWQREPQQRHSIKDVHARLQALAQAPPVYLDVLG

Row | SMILES | IC50 [nM]
1 | O=C(Cc1ccc(Cl)cc1)Nc1cc(C(=O)c2cn([C@H]3CC[C@H](O)CC3)c3ncncc23)ccn1 [Example 1, 2-(4-chlorophenyl)-N-(4-{[7-(trans-4-hydroxycyclohexyl)-7H-pyrrolo[2,3-d]pyrimidin-5-yl]carbonyl}pyridin-2-yl)acetamide] | 22.8
2 | N#Cc1ccc(CC(=O)Nc2cc(C(=O)c3cn([C@H]4CC[C@H](O)CC4)c4ncncc34)ccn2)cc1 [Example 2, 2-(4-cyanophenyl)-N-(4-{[7-(trans-4-hydroxycyclohexyl)-7H-pyrrolo[2,3-d]pyrimidin-5-yl]carbonyl}pyridine-2-yl)acetamide] | 84
3 | Cc1cc(C)n(CC(=O)Nc2cc(C(=O)c3cn([C@H]4CC[C@H](O)CC4)c4ncncc34)ccn2)n1 [Example 3, 2-(3,5-dimethyl-1H-pyrazol-1-yl)-N-(4-{[7-(trans-4-hydroxycyclohexyl)-7H-pyrrolo[2,3-d]pyrimidin-5-yl]carbonyl}pyridin-2-yl)acetamide] | 183
4 | Cc1cc(C)n(CC(=O)Nc2cc(C(=O)c3cn([C@H]4CC[C@@H](O)CC4)c4ncncc34)ccn2)n1 [Example 4, 2-(3,5-dimethyl-1H-pyrazol-1-yl)-N-(4-{[7-(cis-4-hydroxycyclohexyl)-7H-pyrrolo[2,3-d]pyrimidin-5-yl]carbonyl}pyridin-2-yl)acetamide] | 74.3
5 | N#Cc1ccc(CC(=O)Nc2cc(C(=O)c3cn([C@H]4CC[C@@H](O)CC4)c4ncncc34)ccn2)cc1 [Example 5, 2-(4-cyanophenyl)-N-(4-{[7-(cis-4-hydroxycyclohexyl)-7H-pyrrolo[2,3-d]pyrimidin-5-yl]carbonyl}pyridin-2-yl)acetamide] | 75.6
6 | O=C(Cc1ccc(Cl)cc1)Nc1cc(C(=O)c2cn([C@H]3CC[C@@H](O)CC3)c3ncncc23)ccn1 [Example 6, 2-(4-chlorophenyl)-N-(4-{[7-(cis-4-hydroxycyclohexyl)-7H-pyrrolo[2,3-d]pyrimidin-5-yl]carbonyl}pyridin-2-yl)acetamide] | 21.3
7 | CC(C)(CO)n1cc(C(=O)c2ccc(C#N)c(NC(=O)Cc3ccc(C(F)(F)F)cc3)c2)c2cnc(N)nc21 [Example 7, N-{5-[2-Amino-7-(2-hydroxy-1,1-dimethyl-ethyl)-7H-pyrrolo[2,3-d]pyrimidine-5-carbonyl]-2-cyano-phenyl}-2-(4-trifluoromethyl-phenyl)-acetamide] | 5.93
8 | CC(C)(CO)n1cc(C(=O)c2ccc(C#N)c(NC(=O)Cc3ccc(Cl)cn3)c2)c2cnc(N)nc21 [Example 8, N-(5-{[2-amino-7-(1-hydroxy-2-methylpropan-2-yl)-7H-pyrrolo[2,3-d]pyrimidin-5-yl]carbonyl}-2-cyanophenyl)-2-(5-chloropyridin-2-yl)acetamide] | 32
9 | CC(C)(CO)n1cc(C(=O)c2ccc(C#N)c(NC(=O)Cc3ccc(Cl)cc3)c2)c2cnc(N)nc21 [Example 9, N-(5-{[2-amino-7-(1-hydroxy-2-methylpropan-2-yl)-7H-pyrrolo[2,3-d]pyrimidin-5-yl]carbonyl}-2-cyanophenyl)-2-(4-chlorophenyl)acetamide] | 11.1
10 | Cc1cc(C(F)(F)F)nn1CC(=O)Nc1cc(C(=O)c2cn(C(C)(C)CO)c3nc(N)ncc23)ccc1C#N [Example 10, N-(5-{[2-amino-7-(1-hydroxy-2-methylpropan-2-yl)-7H-pyrrolo[2,3-d]pyrimidin-5-yl]carbonyl}-2-cyanophenyl)-2-[5-methyl-3-(trifluoromethyl)-1H-pyrazol-1-yl]acetamide] | 13.2
11 | CC(C)(CO)n1cc(C(=O)c2ccc(C#N)c(NC(=O)Cn3ccc(C(F)(F)F)n3)c2)c2cnc(N)nc21 [Example 11, N-(5-{[2-amino-7-(1-hydroxy-2-methylpropan-2-yl)-7H-pyrrolo[2,3-d]pyrimidin-5-yl]carbonyl}-2-cyanophenyl)-2-[3-(trifluoromethyl)-1H-pyrazol-1-yl]acetamide] | 11.5
12 | CC(C)(CO)n1cc(C(=O)c2ccc(C#N)c(NC(=O)Cn3cc(C(F)(F)F)nn3)c2)c2cnc(N)nc21 [Example 12, N-(5-{[2-amino-7-(1-hydroxy-2-methylpropan-2-yl)-7H-pyrrolo[2,3-d]pyrimidin-5-yl]carbonyl}-2-cyanophenyl)-2-[4-(trifluoromethyl)-1H-1,2,3-triazol-1-yl]acetamide] | 60.7

More lines, now with the values ahead:

Row | IC50 [nM] | SMILES
13 | 101 | CC(CO)n1cc(C(=O)c2ccnc(NC(=O)Cc3ccc(C#N)cc3)c2)c2cncnc21 (racemic) [Example 32, 2-(4-cyanophenyl)-N-(4-{[7-(1-hydroxypropan-2-yl)-7H-pyrrolo[2,3-d]pyrimidin-5-yl]carbonyl}pyridin-2-yl)acetamide]
14 | 2560 | CC(CO)n1cc(C(=O)c2ccnc(NC(=O)Cc3ccc(C#N)cc3)c2)c2cncnc21 (single isomer, unassigned) [Example 33, 2-(4-cyanophenyl)-N-(4-{[7-(1-hydroxypropan-2-yl)-7H-pyrrolo[2,3-d]pyrimidin-5-yl]carbonyl}pyridin-2-yl)acetamide]
15 | 332 | CC(CO)n1cc(C(=O)c2ccnc(NC(=O)Cc3ccc(C#N)cc3)c2)c2cncnc21 (single isomer, unassigned) [Example 34, 2-(4-cyanophenyl)-N-(4-{[7-(1-hydroxypropan-2-yl)-7H-pyrrolo[2,3-d]pyrimidin-5-yl]carbonyl}pyridin-2-yl)acetamide]
16 | 230 | C[C@@H](CO)n1cc(C(=O)c2cc(NC(=O)Cc3ccc(Cl)cn3)ccn2)c2cncnc21 [Example 13, 2-(5-chloropyridin-2-yl)-N-[2-({7-[(2S)-1-hydroxypropan-2-yl]-7H-pyrrolo[2,3-d]pyrimidin-5-yl}carbonyl)pyridin-4-yl]acetamide]
17 | 131 | C[C@@H](CO)n1cc(C(=O)c2cc(NC(=O)Cn3ccc(C(F)(F)F)n3)ccn2)c2cncnc21 [Example 14, N-[2-({7-[(2S)-1-hydroxypropan-2-yl]-7H-pyrrolo[2,3-d]pyrimidin-5-yl}carbonyl)pyridin-4-yl]-2-[3-(trifluoromethyl)-1H-pyrazol-1-yl]acetamide]
18 | 94.8 | C[C@@H](CO)n1cc(C(=O)c2cc(NC(=O)Cc3ccc(C#N)cc3)ccn2)c2cncnc21 [Example 15, 2-(4-cyanophenyl)-N-[2-({7-[(2S)-1-hydroxypropan-2-yl]-7H-pyrrolo[2,3-d]pyrimidin-5-yl}carbonyl)pyridin-4-yl]acetamide]
19 | 147 | C[C@@H](CO)n1cc(C(=O)c2cc(NC(=O)Cc3ccc(Cl)cc3)ccn2)c2cncnc21 [Example 16, 2-(4-chlorophenyl)-N-[2-({7-[(2S)-1-hydroxypropan-2-yl]-7H-pyrrolo[2,3-d]pyrimidin-5-yl}carbonyl)pyridin-4-yl]acetamide]
20 | 72.2 | C[C@@H](CO)n1cc(C(=O)c2cc(NC(=O)Cc3ccc(C(F)(F)F)cc3)ccn2)c2cncnc21 [Example 17, N-[2-({7-[(2S)-1-hydroxypropan-2-yl]-7H-pyrrolo[2,3-d]pyrimidin-5-yl}carbonyl)pyridin-4-yl]-2-[4-(trifluoromethyl)phenyl]acetamide]
21 | 202 | C[C@@H](CO)n1cc(C(=O)c2cc(NC(=O)Cc3ccc(F)cn3)ccn2)c2cncnc21 [Example 18, 2-(5-fluoropyridin-2-yl)-N-[2-({7-[(2S)-1-hydroxypropan-2-yl]-7H-pyrrolo[2,3-d]pyrimidin-5-yl}carbonyl)pyridin-4-yl]acetamide]
22 | 97.6 | C[C@H](CO)n1cc(C(=O)c2cc(NC(=O)Cc3cccc(C(F)(F)F)c3)ccn2)c2cncnc21 [Example 19, N-[2-({7-[(2R)-1-hydroxypropan-2-yl]-7H-pyrrolo[2,3-d]pyrimidin-5-yl}carbonyl)pyridin-4-yl]-2-[3-(trifluoromethyl)phenyl]acetamide]
23 | 120 | Cc1cc(C(F)(F)F)nn1CC(=O)Nc1ccnc(C(=O)c2cn([C@@H](C)CO)c3ncncc23)c1 [Example 20, N-[2-({7-[(2S)-1-hydroxypropan-2-yl]-7H-pyrrolo[2,3-d]pyrimidin-5-yl}carbonyl)pyridin-4-yl]-2-[5-methyl-3-(trifluoromethyl)-1H-pyrazol-1-yl]acetamide]
24 | 95.8 | Cc1cc(C(F)(F)F)nn1CC(=O)Nc1ccnc(C(=O)c2cn([C@H](C)CO)c3ncncc23)c1 [Example 21, N-[2-({7-[(2R)-1-hydroxypropan-2-yl]-7H-pyrrolo[2,3-d]pyrimidin-5-yl}carbonyl)pyridin-4-yl]-2-[5-methyl-3-(trifluoromethyl)-1H-pyrazol-1-yl]acetamide]
